From PubChem BioAssay AID1940 (Sanford-Burnham Center for Chemical Genomics, 2009)

Test system: mouse liver microsomes, LC/MS/MS parent remaining, 60 min
Assay: metabolic stability in mouse liver microsomes, late-stage follow-up, ADME assay, biochemical, LC/MS/MS, with and without NADPH (AID 1940)
Settings: at 1 µM, stronger effect = lower value

percent remaining: 0.56% | percent remaining (measured here: no NADPH control): 61.2%
Structure (SMILES): CC1Cc2cc(S(=O)(=O)N3CCN(c4ccc(Cl)cc4)CC3)ccc2N1C(=O)C1CC1 (configuration not stated)
